According to patent US20190307728A1, “METHODS OF TREATMENT WITH A 2,4,5-TRISUBSTITUTED 1,2,4-TRIAZOLONE” (Bayer Pharma Aktiengesellschaft, priority 2018, published 2019):

How the values were obtained:
Assay in all cases: Cell proliferation panel assay
Type in all cases: cell-based
Mia PaCa-2 = details: Homo sapiens, 72 h; Mia PaCa-2, Pancreatic cancer, 3-day incubation; read-out: Cell Count IC50
U266B1 = details: 72 h; U266B1, Multiple Myeloma, 3-day incubation; read-out: Cell Count IC50
DMS114 = details: Homo sapiens, DMS-114, 72 h; DMS114, Lung cancer, 3-day incubation; read-out: Cell Count IC50
MHH-PREB-1 = details: Homo sapiens, 72 h; MHH-PREB-1, Lymphoma, 3-day incubation; read-out: Cell Count IC50
SU.86.86 = details: Homo sapiens, 72 h; SU.86.86, Pancreatic cancer, 3-day incubation; read-out: Cell Count IC50
Colo 320DM = details: Homo sapiens, 72 h, Colorectal carcinoma, 3-day incubation, read-out: Cell Count IC50
MEG01 = details: Homo sapiens, MEG-01, 72 h; MEG01, Leukemia, 3-day incubation; read-out: Cell Count EC50
ARH-77 = details: Homo sapiens, 72 h; ARH-77, Leukemia, 3-day incubation; read-out: Cell Count EC50
MV-4-11 = details: Homo sapiens, MV4-11, 72 h; MV-4-11, Leukemia, 3-day incubation; read-out: Cell Count IC50
G-401 = details: Homo sapiens, 72 h; G-401, Kidney cancer, 3-day incubation; read-out: Cell Count IC50
PANC-1 = details: Homo sapiens, 72 h, PANC-1, Pancreatic cancer, 3-day incubation
Description: (§1) Cells were grown in RPMI 1640, 10% FBS, 2 mM L-alanyl-L-glutamine, 1 mM Na pyruvate or a special medium. Cells were seeded into 384-well plates and incubated in a humidified atmosphere of 5% CO2 at 37° C. Compounds were added the day following cell seeding. At the same time, a time zero untreated cell plate was generated. After a 3-day incubation period, cells were fixed and stained to allow fluorescence imaging of nuclei.
(§2) Compounds were serially diluted in half-log steps from the highest test concentration 10 μM, and assayed over 10 concentrations with a maximum assay concentration of 0.1% DMSO. Automated fluorescence microscopy was carried out using a Molecular Devices ImageXpress Micro XL high-content imager, and images were collected with a 4× objective. 16-bit TIFF images were acquired and analyzed with MetaXpress 5.1.0.41 software.
(§3) Cell proliferation was measured by the fluorescence intensity of an incorporated nuclear dye. The output is referred to as the relative cell count, where the measured nuclear intensity is transformed to percent of control (POC) using the following formula: […]
(§4) Cellular response parameters were calculated using nonlinear regression to a sigmoidal single-site dose response model:
(§5) Where y is a response measured at concentration x, A and B are the lower and upper limits of the response, C is the concentration at the response midpoint (EC50), and D is the Hill Slope (Fallahi-Sichani, M., S. Honardejad, L. M. Heiser, J. W. Gray, and P. K. Sorger (2013). Metrics other than potency reveal systematic variation in responses to cancer drugs. Nat. Chem. Biol. 9: 708-714.).
(§6) Cell count IC50 is the test compound concentration at 50% of maximal possible response. EC50 is the test compound concentration at the curve inflection point or half the effective response (parameter C of the fitted curve solution).

A498 = details: Homo sapiens, 72 h, A498, Renal cell carcinoma, 3-day incubation
Description: as §1, §2, §3, §4, §5, §6

HT-29 = details: Homo sapiens, 72 h; HT-29, Colorectal carcinoma, 3-day incubation; read-out: Cell Count IC50
CEM-C1 = details: 72 h; CEM-C1, Leukemia, 3-day incubation; read-out: Cell Count EC50
CaOV3 = details: Homo sapiens, Caov-3, 72 h; CaOV3, Ovarian carcinoma, 3-day incubation; read-out: Cell Count IC50

IC50 (Mia PaCa-2): > 10000 nM | IC50 (U266B1): > 10000 nM | IC50 (Colo 320DM): 5.1 nM | IC50 (MV-4-11): 1.2 nM | EC50 (PANC-1; read-out: Cell Count EC50): 3.5 nM | IC50 (PANC-1; read-out: Cell Count IC50): > 10000 nM | IC50 (HT-29): 11 nM
SMILES: CCn1c(CO)nn(-c2cc(O[C@@H](C)C(F)(F)F)c(C(=O)Nc3c(F)cccc3Cl)cc2F)c1=O [Example 1, N-(2-chloro-6-fluorophenyl)-4-[4-ethyl-3-(hydroxymethyl)-5-oxo-4,5-dihydro-1H-1,2,4-triazol-1-yl]-5-fluoro-2-{[(2S)-1,1,1-trifluoropropan-2-yl]oxy}benzamide]
IC50 (DMS114): > 10000 nM | IC50 (MHH-PREB-1): 0.83 nM | IC50 (SU.86.86): > 10000 nM | EC50 (MEG01): 0.66 nM | EC50 (ARH-77): 0.92 nM | IC50 (G-401): > 10000 nM | EC50 (A498; read-out: Cell Count EC50): > 10000 nM | IC50 (A498; read-out: Cell Count IC50): > 10000 nM | EC50 (CEM-C1): 0.91 nM | IC50 (CaOV3): > 10000 nM
